Laboratory results from patent publication US20030130123A1, “2-Phenyl-2h-pyridazine-3-ones” (priority 2000, published 2003).
Values belong to the compound of their own block, whether it stands above or below them.

Tests used:
[1] = test system: IPOSS (morning glory); experiment: Greenhouse herbicidal action, postemergence treatment; assay type: in vivo; settings: 100 = complete destruction, 0 = no damage
Source text: (§1) The herbicidal action of the 2-phenylpyridazin-3-one compounds of the formula I could be shown by means of greenhouse experiments: […]
(§2) The cultivation containers used were plastic pots containing loamy sand with approximately 3.0% of humus as a substrate. The seeds of the test plants were sown separately according to species.
(§3) For the purpose of postemergence treatment, the test plants were first raised up to a growth height of 3 to 15 cm, depending on growth form, and then treated with the active compounds suspended or emulsified in water. For this, the test plants were either sown directly and raised in the same containers or they were first raised separately as seedlings and transplanted into the experimental containers a few days before the treatment. The application rate for the postemergence treatment was 15.6 or 7.8 g of a.s./ha.
(§4) The plants were kept species-specifically at temperature from 10-25° C. or 20-35° C. The experimental period extended over 2 to 4 weeks. During this time, the plants were tended, and their reaction to the individual treatments was assessed.
(§5) Assessment was carried out on a scale from 0 to 100. 100 here means no emergence of the plants or complete destruction of at least the above-ground parts and 0 means no damage or normal course of growth.
(§6) The plants used in the greenhouse experiments were made up of the following species:
(§7) The compound Ia.4 from Example 1 and the compound of Example 1-637 (X=H), disclosed in WO 97/07104, were tested in the postemergence process in the manner described.

[2] = test system: ABUTH (velvetleaf); experiment: as above; assay type: in vivo; settings: 100 = complete destruction, 0 = no damage
Source text: as §1, §2, §3, §4, §5, §6, §7

[3] = test system: GALAP (catchweed); experiment: as above; assay type: in vivo; settings: 100 = complete destruction, 0 = no damage
Source text: as §1, §2, §3, §4, §5, §6, §7

[4] = test system: BIDPI (hairy beggarticks); experiment: as above; assay type: in vivo; settings: 100 = complete destruction, 0 = no damage
Source text: as §1, §2, §3, §4, §5, §6, §7

[5] = test system: COMBE (dayflower); experiment: as above; assay type: in vivo; settings: 100 = complete destruction, 0 = no damage
Source text: as §1, §2, §3, §4, §5, §6, §7

[6] = application rate 7.8 g/ha (a.s.)
[7] = application rate 15.6 g/ha (a.s.)

SMILES: CCOC(=O)C(Cl)=Cc1cc(-n2ncc(C(F)(F)F)c(C)c2=O)ccc1Cl [Ia.4, 2-[4-Chloro-3-(2-ethoxycarbonyl-2-chloroethen-1-yl)phenyl]-4-methyl-5-trifluoromethyl-2H-pyridazin-3-one]
Herbicidal action, assessment on a scale from 0 to 100 [1, 6]: 100 | Herbicidal action, assessment on a scale from 0 to 100 [1, 7]: 100 | Herbicidal action, assessment on a scale from 0 to 100 [2, 6]: 100 | Herbicidal action, assessment on a scale from 0 to 100 [2, 7]: 100 | Herbicidal action, assessment on a scale from 0 to 100 [3, 6]: 100 | Herbicidal action, assessment on a scale from 0 to 100 [3, 7]: 100 | Herbicidal action, assessment on a scale from 0 to 100 [4, 6]: 80 | Herbicidal action, assessment on a scale from 0 to 100 [4, 7]: 98 | Herbicidal action, assessment on a scale from 0 to 100 [5, 6]: 100 | Herbicidal action, assessment on a scale from 0 to 100 [5, 7]: 100

melting point: 60 to 62 °C
SMILES: COCCOC(=O)C(Cl)=Cc1cc(-n2ncc(C(F)(F)F)c(C)c2=O)ccc1Cl [Ia.12, 2-{4-Chloro-3-[2-(2-methoxyethoxy)carbonyl-2-chloroethen-1-yl]phenyl}-4-methyl-5-trifluoromethyl-2H-pyridazin-3-one]

melting point: 78 to 79 °C
SMILES: Cc1c(C(F)(F)F)cnn(-c2ccc(Cl)c(C=C(Cl)C(=O)OCCC#N)c2)c1=O [Ia.16, 2-{4-Chloro-3-[2-(2-cyanoethoxy)carbonyl-2-chloroethen-1-yl]phenyl}-4-methyl-5-trifluoromethyl-2H-pyridazin-3-one]

melting point: 62 to 63 °C
SMILES: C=CCOC(=O)C(Cl)=Cc1cc(-n2ncc(C(F)(F)F)c(C)c2=O)ccc1Cl [Ia.41, 2-[4-Chloro-3-(2-allyloxycarbonyl-2-chloroethen-1-yl)phenyl]-4-methyl-5-trifluoromethyl-2H-pyridazin-3-one]

melting point: 81 to 82 °C
SMILES: C#CCOC(=O)C(Cl)=Cc1cc(-n2ncc(C(F)(F)F)c(C)c2=O)ccc1Cl [Ia.42, 2-[4-Chloro-3-(2-propargyloxycarbonyl-2-chloroethen-1-yl)phenyl]-4-methyl-5-trifluoromethyl-2H-pyridazin-3-one]
